ChEMBL document CHEMBL1139163, “Discovery and initial SAR of 3-(1H-benzo[d]imidazol-2-yl)pyridin-2(1H)-ones as inhibitors of insulin-like growth factor 1-receptor (IGF-1R)” (Bioorg Med Chem Lett, 2007)
pIC50: −log10 of the molar value.

Assays:
[1] = biological target: Insulin-like growth factor 1 receptor (Homo sapiens, UniProt P08069); test: Inhibition of human recombinant IGF1 receptor
HT-29 = test: Cytotoxicity against HT29 cells by MTT assay; assay type: functional, Homo sapiens

Chain of Insulin-like growth factor 1 receptor (P08069 31-736 limits assumed): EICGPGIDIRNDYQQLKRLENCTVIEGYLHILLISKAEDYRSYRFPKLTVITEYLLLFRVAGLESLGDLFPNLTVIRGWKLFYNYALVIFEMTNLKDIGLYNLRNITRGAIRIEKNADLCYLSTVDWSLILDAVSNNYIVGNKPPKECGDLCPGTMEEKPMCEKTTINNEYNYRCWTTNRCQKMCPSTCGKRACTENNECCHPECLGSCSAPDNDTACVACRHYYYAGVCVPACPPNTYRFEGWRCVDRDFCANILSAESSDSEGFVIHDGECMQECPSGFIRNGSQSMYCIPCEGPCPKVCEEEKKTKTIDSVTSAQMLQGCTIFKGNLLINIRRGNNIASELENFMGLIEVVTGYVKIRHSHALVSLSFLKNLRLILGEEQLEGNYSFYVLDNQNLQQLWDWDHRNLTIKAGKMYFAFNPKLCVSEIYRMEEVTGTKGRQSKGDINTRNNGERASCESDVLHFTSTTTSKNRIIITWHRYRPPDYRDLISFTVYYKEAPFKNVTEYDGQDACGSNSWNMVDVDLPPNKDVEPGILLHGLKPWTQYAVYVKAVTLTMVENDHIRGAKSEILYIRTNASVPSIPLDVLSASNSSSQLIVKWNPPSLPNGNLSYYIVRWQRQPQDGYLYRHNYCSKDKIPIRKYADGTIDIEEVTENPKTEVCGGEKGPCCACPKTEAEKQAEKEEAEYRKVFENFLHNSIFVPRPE
Chain of Insulin-like growth factor 1 receptor (P08069 741-1367 limits assumed): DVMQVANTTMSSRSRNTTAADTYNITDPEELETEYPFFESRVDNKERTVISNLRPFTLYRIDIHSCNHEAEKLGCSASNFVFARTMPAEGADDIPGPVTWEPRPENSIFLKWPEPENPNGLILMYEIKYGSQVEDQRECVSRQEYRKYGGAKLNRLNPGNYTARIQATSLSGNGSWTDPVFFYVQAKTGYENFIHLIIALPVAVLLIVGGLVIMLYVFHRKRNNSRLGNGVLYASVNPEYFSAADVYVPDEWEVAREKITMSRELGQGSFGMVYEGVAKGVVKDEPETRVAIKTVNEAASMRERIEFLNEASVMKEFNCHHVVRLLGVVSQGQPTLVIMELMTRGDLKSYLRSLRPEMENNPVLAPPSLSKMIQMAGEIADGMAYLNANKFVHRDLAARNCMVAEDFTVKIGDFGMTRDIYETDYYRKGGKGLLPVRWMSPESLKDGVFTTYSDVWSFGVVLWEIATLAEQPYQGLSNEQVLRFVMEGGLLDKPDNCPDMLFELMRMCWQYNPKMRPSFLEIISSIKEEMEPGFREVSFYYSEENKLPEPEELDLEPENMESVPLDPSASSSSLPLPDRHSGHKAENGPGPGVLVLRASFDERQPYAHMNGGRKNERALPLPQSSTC

SMILES	pIC50 [1]	Activity (HT-29) [µM]
Cc1cc(-n2ccnc2)cc2[nH]c(-c3c(N[C@H](CO)Cc4ccccc4C#N)cc[nH]c3=O)nc12	5.66	
NCc1cc(-n2ccnc2)cc2nc(-c3ccc[nH]c3=O)[nH]c12	< 4.60	
CCN(Cc1cc(-n2ccnc2)cc2[nH]c(-c3ccc[nH]c3=O)nc12)c1ncc[nH]1	4.89	
COc1ccc(C[C@@H](CO)Nc2cc[nH]c(=O)c2-c2nc3c(C)cc(-n4ccnc4)cc3[nH]2)cc1	5.51	
O=c1[nH]cccc1-c1nc2c(CN3CCNCC3)cc(-n3ccnc3)cc2[nH]1	< 4.60	
Cc1cc(-n2ccnc2)cc2nc(-c3c(NCc4ccccn4)cc[nH]c3=O)[nH]c12		7.6
Cc1cc(-n2ccnc2)cc2[nH]c(-c3c(N[C@H](CO)Cc4cccc(F)c4)cc[nH]c3=O)nc12	6.23	2.1
Cc1cc(-n2ccnc2)cc2[nH]c(-c3c(OCc4ccccn4)cc[nH]c3=O)nc12	< 4.60	
Cc1cc(-n2ccnc2)cc2[nH]c(-c3c(N[C@H](CO)Cc4ccccc4Cl)cc[nH]c3=O)nc12	6.07	
O=c1[nH]cccc1-c1nc2c(CNCc3ccccc3)cc(-n3ccnc3)cc2[nH]1	< 4.60	
Cc1cc(-n2ccnc2)cc2[nH]c(-c3c(N[C@H](CO)Cc4cccc(Br)c4)cc[nH]c3=O)nc12	6.23	1.3
CNCc1cc(-n2ccnc2)cc2nc(-c3ccc[nH]c3=O)[nH]c12	< 4.60	
Cc1cc(-n2ccnc2)cc2nc(-c3c(NCc4ccco4)cc[nH]c3=O)[nH]c12	5.52	
Cc1cc(-n2ccnc2)cc2nc(-c3c(NCCn4nccn4)cc[nH]c3=O)[nH]c12	5.60	
Cc1cc(-n2ccnc2)cc2[nH]c(-c3c(N[C@H](CO)Cc4ccccc4Br)cc[nH]c3=O)nc12	6.54	0.83
Cc1cc(-n2ccnc2)cc2[nH]c(-c3c(N[C@H](CO)Cc4cccc([N+](=O)[O-])c4)cc[nH]c3=O)nc12	5.48	
Cc1cc(-n2ccnc2)cc2[nH]c(-c3c(NCc4cccs4)cc[nH]c3=O)nc12	5.28	

SMILES	pIC50 [1]	Activity (HT-29) [µM]
Cc1cc(-n2ccnc2)cc2[nH]c(-c3c(N[C@H](CO)Cc4ccc(Cl)cc4)cc[nH]c3=O)nc12	5.27	
Cc1cc(-n2ccnc2)cc2[nH]c(-c3c(N[C@H](CO)Cc4ccccc4OC(F)(F)F)cc[nH]c3=O)nc12	5.89	
COc1cccc(C[C@@H](CO)Nc2cc[nH]c(=O)c2-c2nc3c(C)cc(-n4ccnc4)cc3[nH]2)c1	6.18	1.6
Cc1cc(-n2ccnc2)cc2nc(-c3c(N[C@H](CO)Cc4ccccn4)cc[nH]c3=O)[nH]c12	5.32	
Cc1ccccc1C[C@@H](CO)Nc1cc[nH]c(=O)c1-c1nc2c(C)cc(-n3ccnc3)cc2[nH]1	6.28	
Cc1cc(-n2ccnc2)cc2[nH]c(-c3c(SCc4ccccn4)cc[nH]c3=O)nc12	< 4.60	
CN(Cc1cc(-n2ccnc2)cc2[nH]c(-c3ccc[nH]c3=O)nc12)c1ccccc1	< 4.60	
Cc1cc(-n2ccnc2)cc2[nH]c(-c3c(N[C@H](CO)Cc4cccc(C(F)(F)F)c4)cc[nH]c3=O)nc12	5.46	
O=c1[nH]cccc1-c1nc2cc(-n3ccnc3)cc(CNCc3cccnc3)c2[nH]1	< 4.60	
Cc1cc(-n2ccnc2)cc2[nH]c(-c3c(N[C@H](CO)Cc4cccc(Cl)c4)cc[nH]c3=O)nc12	6.14	1.1
COc1ccccc1C[C@@H](CO)Nc1cc[nH]c(=O)c1-c1nc2c(C)cc(-n3ccnc3)cc2[nH]1	6.24	1.2
Cc1cc(-n2ccnc2)cc2[nH]c(-c3c(NCc4ccncc4)cc[nH]c3=O)nc12	< 4.60	
Cc1cc(-n2ccnc2)cc2nc(-c3c(NCc4cccnc4)cc[nH]c3=O)[nH]c12	4.85	
Cc1cc(-n2ccnc2)cc2[nH]c(-c3c(N[C@H](CO)Cc4ccc(F)cc4)cc[nH]c3=O)nc12	5.85	
Cc1cc(-n2ccnc2)cc2[nH]c(-c3c(N[C@H](CO)Cc4ccc(OC(C)(C)C)cc4)cc[nH]c3=O)nc12	5.77	
Cc1cc(-n2ccnc2)cc2[nH]c(-c3c(N[C@H](CO)Cc4ccccc4)cc[nH]c3=O)nc12	6.28	0.78
Cc1cc(-n2ccnc2)cc2[nH]c(-c3c(NCCc4cccs4)cc[nH]c3=O)nc12	5.68	
